Test results from patent publication US20240116867A1, “ALKYL […] AMMONIUM T[…] THEIR […] USES” (CAAMTECH, INC., priority 2019, published 2024).
Like-named read-outs stand apart in the source and are kept apart here.

Columns and labels:
5-HT3 [1] = target: T1, 5-HT3 (Homo sapiens, UniProt P46098); experiment: Radioligand binding, 5-HT3 ([3H] BRL 43694), membrane homogenates of HEK-293 cells; details: Table 5
T1 construct: host or cells: HEK-293
T1 sequence (P46098 24-478): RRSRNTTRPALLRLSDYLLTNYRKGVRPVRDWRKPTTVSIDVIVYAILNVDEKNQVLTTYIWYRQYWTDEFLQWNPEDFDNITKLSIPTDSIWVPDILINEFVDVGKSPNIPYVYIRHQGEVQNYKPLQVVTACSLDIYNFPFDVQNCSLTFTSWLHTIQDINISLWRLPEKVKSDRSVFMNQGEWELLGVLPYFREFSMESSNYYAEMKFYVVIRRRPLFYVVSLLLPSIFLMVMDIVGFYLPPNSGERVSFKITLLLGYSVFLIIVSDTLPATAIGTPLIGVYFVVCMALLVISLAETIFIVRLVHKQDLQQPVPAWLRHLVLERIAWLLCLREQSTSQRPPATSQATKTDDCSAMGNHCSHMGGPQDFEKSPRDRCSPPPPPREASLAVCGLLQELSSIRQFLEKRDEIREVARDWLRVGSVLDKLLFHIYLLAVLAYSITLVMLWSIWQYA
Description: (§1) Cellular assays were performed by Eurofins CEREP SA, Celle-Lévescault, France. All receptors were separately expressed in HEK-293 cells. Cell membrane homogenates (30 μg protein) are incubated for 60 min (5-HT1A, 5-HT2A, 5-HT2B) or 120 min (5-HT3) at 22° C. with radiolabeled ligand in the absence or presence of the test compound in a buffer containing 50 mM Tris-HCl (pH 7.4), 5 mM MgCl2, 10 μM pargyline and 0.1% ascorbic acid. For 5-HT3, the buffer contained 50 mM Tris-HCl (pH 7.4), 5 mM MgCl2, and 1 mM EDTA. Binding was reported as the Ki for the inhibition of binding of well-characterized orthosteric ligands. The ligands used for each receptor were: • 5-HT1A: [^3H] 8-OH-DPAT • 5-HT2A: [^125] […]
(§2) Nonspecific binding was determined in the presence of 1 μM unlabeled ligand listed above. […] The filters were dried then counted for radioactivity in a scintillation counter (Topcount, Packard) using a scintillation cocktail (Microscint 0, Packard). The results are expressed as a percent inhibition of the control radioligand specific binding.
(§3) The IC50 values and Hill coefficients (nH) were determined by non-linear regression analysis of the competition curves generated with mean replicate values using Hill equation curve fitting Y=D+[(A−D)/(1+(C/C50)^nH)] where Y=specific binding, A=left asymptote of the curve, D=right asymptote of the curve, C=compound concentration, C50=IC50, and nH=slope factor. […]

5-HT2A [2] = target: T2, 5-HT2A (Homo sapiens, UniProt P28223); experiment: Radioligand binding, 5-HT2A ([125] (±)DOI), membrane homogenates of HEK-293 cells; details: Table 5
T2 construct: host or cells: HEK-293
Description: as §1, §2, §3

5-HT1A [3] = target: T3, 5-HT1A (Homo sapiens, UniProt P08908); experiment: Radioligand binding, 5-HT1A ([3H] 8-OH-DPAT), membrane homogenates of HEK-293 cells; details: Table 5
T3 construct: host or cells: HEK-293
T3 sequence (P08908 1-422): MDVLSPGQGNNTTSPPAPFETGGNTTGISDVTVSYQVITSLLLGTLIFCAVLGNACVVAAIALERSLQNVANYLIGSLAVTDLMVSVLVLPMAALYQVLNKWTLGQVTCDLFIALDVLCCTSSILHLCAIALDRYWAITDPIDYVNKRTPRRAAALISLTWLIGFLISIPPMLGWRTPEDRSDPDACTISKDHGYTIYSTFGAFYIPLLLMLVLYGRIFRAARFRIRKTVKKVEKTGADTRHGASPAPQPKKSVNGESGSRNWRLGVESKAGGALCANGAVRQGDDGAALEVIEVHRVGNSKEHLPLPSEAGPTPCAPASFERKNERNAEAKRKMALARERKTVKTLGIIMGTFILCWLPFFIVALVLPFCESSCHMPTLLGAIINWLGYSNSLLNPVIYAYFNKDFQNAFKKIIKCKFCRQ
Description: as §1, §2, §3

5-HT2B [4] = target: T4, 5-HT2B (Homo sapiens, UniProt P41595); experiment: Radioligand binding, 5-HT2B ([125] (±)DOI), membrane homogenates of HEK-293 cells; set-up: host or cells: HEK-293; details: Table 5
Description: as §1, §2, §3

5-HT2B [5] = target: T4, 5-HT2B; details: comparison values (Roth et al.); cited from earlier work
5-HT2A [6] = target: T2, 5-HT2A; details: cited from earlier work
5-HT3 [7] = target: T1, 5-HT3; details: read-out: Inhibition constants (Ki) 5-HT3; comparison values marked ‡ (Roth et al.); cited from earlier work
5-HT1A [8] = target: T3, 5-HT1A; details: cited from earlier work
[9] = comparison values (Roth et al.)

T2 sequence (P28223 whole entry): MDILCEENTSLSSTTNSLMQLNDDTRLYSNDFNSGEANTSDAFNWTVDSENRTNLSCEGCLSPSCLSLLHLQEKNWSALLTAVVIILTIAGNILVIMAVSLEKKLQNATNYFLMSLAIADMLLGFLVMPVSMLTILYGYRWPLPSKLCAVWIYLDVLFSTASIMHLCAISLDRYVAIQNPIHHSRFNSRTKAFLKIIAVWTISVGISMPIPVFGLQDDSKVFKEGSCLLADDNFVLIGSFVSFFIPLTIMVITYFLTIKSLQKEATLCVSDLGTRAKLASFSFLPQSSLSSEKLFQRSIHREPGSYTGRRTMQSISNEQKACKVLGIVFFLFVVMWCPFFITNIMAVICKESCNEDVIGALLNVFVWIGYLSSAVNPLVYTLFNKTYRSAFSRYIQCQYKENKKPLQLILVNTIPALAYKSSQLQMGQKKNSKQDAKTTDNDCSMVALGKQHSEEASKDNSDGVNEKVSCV
T4 sequence (P41595 whole entry): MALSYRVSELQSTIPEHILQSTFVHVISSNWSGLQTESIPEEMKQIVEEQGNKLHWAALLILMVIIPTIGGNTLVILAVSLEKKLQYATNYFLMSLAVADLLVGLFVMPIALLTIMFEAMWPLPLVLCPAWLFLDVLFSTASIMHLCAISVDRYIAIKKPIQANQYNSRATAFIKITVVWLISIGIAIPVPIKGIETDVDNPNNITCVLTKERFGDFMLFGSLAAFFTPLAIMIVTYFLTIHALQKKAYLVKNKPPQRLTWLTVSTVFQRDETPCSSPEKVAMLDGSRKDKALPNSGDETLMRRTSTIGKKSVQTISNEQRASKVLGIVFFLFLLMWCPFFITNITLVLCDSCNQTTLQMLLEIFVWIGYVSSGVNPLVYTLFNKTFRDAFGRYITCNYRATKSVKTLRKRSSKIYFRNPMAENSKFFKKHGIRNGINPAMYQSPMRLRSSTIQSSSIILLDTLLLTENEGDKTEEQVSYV

| SMILES | activity at 5-HT3 (in words) (5-HT3 [1]) | activity at 5-HT2A (in words) (5-HT2A [2]) | activity at 5-HT1A (in words) (5-HT1A [3]) | activity at 5-HT2B (in words) (5-HT2B [4]) | activity at 5-HT2B (in words) (5-HT2B [5]) | activity at 5-HT2A (in words) (5-HT2A [6]; [9]) | Ki (5-HT3 [7]) [µM] | activity at 5-HT1A (in words) (5-HT1A [8]; [9]) | Ki (5-HT2A [6]; read-out: Inhibition constants (Ki) 5-HT2A, comparison values marked ‡ (Roth et al.)) [µM] | Ki (5-HT1A [8]; read-out: Inhibition constants (Ki) 5-HT1A, comparison values marked ‡ (Roth et al.)) [µM] |
| --- | --- | --- | --- | --- | --- | --- | --- | --- | --- | --- |
| CC(=O)Oc1cccc2[nH]cc(CC[N+](C)(C)C)c12 [Example 4-AcO-TMTI, 4-Acetoxy-N,N,N-trimethyltryptammonium Iodide] | shows no activity | shows no activity | shows no activity | shows no activity | – | – | – | – | – | – |
| C[N+](C)(C)CCc1c[nH]c2cccc(O)c12 [Example 4-HO-TMTI, 4-Hydroxy-N,N,N-trimethyltryptammonium Iodide] | no activity observed | shows activity | shows activity | shows activity | – | – | – | – | – | – |
| CN(C)CCc1c[nH]c2cccc(O)c12 [Psilocin] | – | – | – | – | significantly more potent than 4-HO-TMTI | shows activity | > 10 | shows activity | – | – |
| CN(C)CCc1c[nH]c2cccc(OP(=O)(O)O)c12 [Psilocybin] | – | – | – | – | – | – | > 10 | – | > 10 | > 10 |
